{"source": "patent US10131692B2", "about": "“Vasopressin-2 receptor agonists” (Ferring B.V., priority 2013, dated 2018)", "key": {"[1]": {"target": "human V2 receptor (h V2R) (Homo sapiens (Human), UniProt P30518)", "experiment": "hV2 receptor agonist transcriptional reporter gene (luciferase) assay", "type": "cell-based", "settings": "HEK-293 cells transiently transfected with hV2 receptor, dDAVP internal control"}, "[2]": {"settings": "in vivo; cited from earlier work"}}, "data": [{"substance": "[Val4]dDAVP [Compound 43]", "values": [{"measurement": "% Efficacy hV2-R", "setting": "[1]", "value": 89, "unit": "%"}]}, {"substance": "[1-deamino, 8-D-arginine]-vasopressin [Compound 42]", "values": [{"measurement": "route of clearance from the body", "setting": "[2]", "value": "cleared from the body primarily by the kidneys"}]}]}
